The record followed here is US20240158448A1, “MULTIVALENT NANO-'SELF' PEPTIDES AND USES THEREOF” (THE TRUSTEES OF THE UNIVERSITY OF PENNSYLVANIA, priority 2021, published 2024).

The test system of one data set is THP-1 macrophages. The experiment in a line: Peptide inhibition assay (competition with FAM-labeled nS-F on THP-1 macrophages). It is filed as binding, human. The note with it: pre-treatment with unlabeled peptide. On the procedure: Peptide inhibition assay. THP-1 monocytes were PMA differentiated in RPMI for 48 hours. […] To measure background internalization of the FAM-labeled peptides, nS-X-FAM was used. To determine the efficacy of the bivalent peptides to inhibit SIRPα binding, nS-X was used. Excess peptides were washed off with PBS and cells were fixed with 4% formaldehyde for 15 minutes at RT, washed with PBS, stained with 1 μg/mL Hoechst 33342, and then washed with PBS again. Fluorescence imaging was performed as described elsewhere herein and quantification was done using ImageJ.

Data set [1] is described as follows: Pre-clinical safety: intravenous nS-FF injections in mice. The format is in vivo, mouse. On the procedure:
FIGS. 23A-23D illustrate that pre-clinical assessments indicate nS-FF is safe in vivo Phase 1 pre-clinical trial: Intravenous injections of nS-FF were done for four consecutive days followed by blood withdrawal 24 hours after last injection.
Phase 1 clinical trials for safety of anti-CD47 in patients have shown that infusion into the bloodstream decreases RBC numbers (i.e. hematocrit) and increases reticulocytes (i.e. new RBCs), and related blood safety concerns apply to a bivalent CD47-binding protein made with SIRPα domains fused to a macrophage-binding domain (Fc domain). […] This corresponds to about 8 μM in the blood, assuming rapid mixing and no dilution within the ˜1.5 mL blood volume of the mouse. Withdrawal of ˜140 μL from this blood volume was necessary to obtain a complete hematology profile, and such a volume is expected to cause slight decreases in hematocrit and platelets as shown (FIGS. 23A-23B). Consistent with this loss, more RBCs should be produced in each mouse to compensate for the RBC loss, and the ˜30% increase in reticulocytes after the first two blood draws over 11 days (FIG. 23C) is similar to the prior amount of blood removed (˜300 μl/1500 μl). The mice (˜14 weeks) also continued to gain weight at the same rates (˜5% over 11 days) regardless of peptide injections. These changes are thus expected but, importantly, unaffected by the nSFF peptide, which establishes some safety.

The target of a further data set is T1, soluble human SIRPα (Homo sapiens, UniProt P78324).
T1 construct: Soluble human SIRPα fused with glutathione s-transferase (SIRPα-GST); GST (glutathione S-transferase); made in house
T1 sequence (P78324 31-373 limits assumed): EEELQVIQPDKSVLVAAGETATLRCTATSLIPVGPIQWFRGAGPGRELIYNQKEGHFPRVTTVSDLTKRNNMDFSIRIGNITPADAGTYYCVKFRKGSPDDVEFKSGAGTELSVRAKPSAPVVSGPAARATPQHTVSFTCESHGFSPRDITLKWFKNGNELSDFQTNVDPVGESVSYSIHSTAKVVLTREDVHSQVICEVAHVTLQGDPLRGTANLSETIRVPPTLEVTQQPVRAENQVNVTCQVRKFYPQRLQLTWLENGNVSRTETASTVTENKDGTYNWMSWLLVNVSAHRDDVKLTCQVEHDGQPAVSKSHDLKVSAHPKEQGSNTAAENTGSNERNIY
As to the kind of experiment: Binding of biotinylated peptides on streptavidin beads to soluble SIRPα. An excerpt: SIRPα Expression and Purification. Soluble human SIRPα fused with glutathione s-transferase (SIRPα-GST) was expressed and purified as previously published (Tsai, et al., 2008, J. Cell Biol. 180:989-1003).
Peptide biotinylation: NHS-biotin (Thermo Fischer) was mixed with nS-wt and nS-V, respectively, following the manufacturer's protocol. The biotinylated peptides were dialyzed against PBS.
Streptavidin-beads binding: Streptavidin-coated polystyrene beads of 2.1 μm radius (Spherotech) were washed and blocked 3x in PBS plus 0.4% BSA. nS-wt-biotin or nS-V-biotin were incubated with the beads for 1 hour at room temperature with shaking. Beads were washed with PBS, then incubated with recombinant SIRPα for 1 hour in ice. Streptavidin beads were labeled with rabbit anti-streptavidin-FITC (Invitrogen) and SIRPα was stained with mouse anti-SIRPα-allophycocyanin (anti-SIRPα-APC; Invitrogen).

Data set [2] deals with COS-1 (SIRPα negative) cells. The experiment in a line: Confocal live staining with FAM-labeled peptides, COS-1 cells. The note with it: FAM-labeled peptide. The format is binding, monkey. On the procedure:
(§1) SIRPα staining and confocal imaging. THP-1 monocytes were PMA-differentiated in RPMI 1640 for 24 hours. J774A.1, A549, and COS-1 cells were plated for 24 hours in media, respectively. Cells were washed with respective media prior to addition of fluorescent peptides. The peptides were left to incubate for 1 hour at 37 ° C., 5% CO2 and 95% humidity. For fixed cell staining, cells were incubated with 4% formaldehyde (Pierce) for 15 minutes prior to the addition of fluorescent peptides whereas for live cell staining, fixation was done after incubation with the FAM-labeled peptides. Nuclei were stained with 1 μg/mL Hoechst 33342 (Invitrogen). Cells were the washed PBS three times before analysis. Fluorescence imaging of fixed cells was performed using an Olympus IX71 with a digital EMCCD camera (Cascade 512B) and a 40×/0.6 NA objective. […] Quantification was done with ImageJ (NIH).
(§2) In order to visualize the uneven binding of the peptides to the surface of the macrophages, a live staining experiment of THP-1, J774A.1, and A549 cells, which all express SIRPα at different levels, was performed with FAM-labeled nS-wt and nS-X and analyzed by confocal microscopy (FIG. 11). […] Fluorescence of nS-X was consistently lower on THP-1 and J774A.1 macrophages relative to nS-wt. […]

Data set [3] deals with A549 (SIRPα positive) cells. As to the kind of experiment: Confocal live staining with FAM-labeled peptides, A549 cells. It is filed as binding, human. The note with it: 100 uM and 1 μM FAM-labeled peptide. On the procedure: as §1, §2

“Also recorded” adds a separate entry of the source. Non-standard residues stand in square brackets, D forms with d. Primed or numbered codes have the meaning given here. No end group written: not given here. PEG5′ = linker of 5 PEG units between residues

“(VTELFREG-PEG5)2-K (VTELFREG[PEG5′]K[PEG5′]GERFLETV; not fully specified; also: bivalent lysine core) [nS-FF, bivalent nS-F linked through PEG5 linkers to a C-terminal Lys]”: the “inhibition of monovalent nS-F-FAM binding to macrophages” value with THP-1 macrophages is “further decreased”. Moreover, the increase in reticulocytes in data set [1] (after the first two blood draws over 11 days, unaffected by peptide) is ~30%. Besides, the “safety: mouse hematology and body weight” value in data set [1] (four daily tail-vein injections of 1 mg/kg, 1 mg/kg) is “safe, with no anemia or weight loss; also recorded: no differences versus PBS vehicle control”. In data set [1] (over 11 days, same rates regardless of peptide injections), the body weight gain is recorded as ~5%.
For the substance “VTELTREG [nS-wt, 8-amino acid wild type nano-Self peptide from the CD47 loop, C-terminal amide]”, the “SIRPα binding to peptide-coated beads” value on soluble human SIRPα is “fluorescence is only observed in the presence of biotinylated peptide”. Besides, the “binding to COS-1 cells” value in data set [2] is “primarily non-specific”. Further, the “binding to A549 cells” value in data set [3] is “binding was observed at 100 uM on A549 cells all around the surface”.
